Measurements taken from ChEMBL document CHEMBL4376834, “Discovery of 4H-Chromen-4-one Derivatives as a New Class of Selective Rho Kinase (ROCK) Inhibitors, which Showed Potent Activity in ex Vivo Diabetic Retinopathy Models” (J Med Chem, 2019).

Tests used:
[1] = target: Glycogen synthase kinase-3 beta (Homo sapiens, UniProt P49841); assay: Inhibition of human GSK-3beta H350L mutant (2 to end residues) using YRRAAVPPSPSLSR as substrate after 40 mins by [gamma-33ATP] radiometric assay
[2] = Inhibition of recombinant human Ros V2262A mutant (1883 to end residues) using KKKSPGEYVNIEFG as substrate incubated for 40 mins in presence of [gamma33P]ATP by radiometric scintillation counting analysis
[3] = target: Dual specificity mitogen-activated protein kinase kinase 1 (Homo sapiens, UniProt Q02750); assay: Inhibition of recombinant full length human MEK1 using inactive MAPK2 as substrate incubated for 40 mins in presence of [gamma-33ATP by radiometric scintillation counting analysis
Sequence of Dual specificity mitogen-activated protein kinase kinase 1 (Q02750 whole entry): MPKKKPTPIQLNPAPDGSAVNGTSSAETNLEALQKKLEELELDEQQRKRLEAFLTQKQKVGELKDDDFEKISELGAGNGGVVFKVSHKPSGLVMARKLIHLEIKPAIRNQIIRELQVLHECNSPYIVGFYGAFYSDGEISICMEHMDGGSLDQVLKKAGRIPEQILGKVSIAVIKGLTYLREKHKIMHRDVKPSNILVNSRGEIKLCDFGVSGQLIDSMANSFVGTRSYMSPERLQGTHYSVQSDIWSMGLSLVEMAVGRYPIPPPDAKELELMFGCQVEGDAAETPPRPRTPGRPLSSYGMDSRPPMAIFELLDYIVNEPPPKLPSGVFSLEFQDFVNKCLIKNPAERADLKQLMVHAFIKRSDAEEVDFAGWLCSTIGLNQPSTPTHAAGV

[4] = target: Tyrosine-protein kinase FRK (Homo sapiens, UniProt P42685); assay: Inhibition of recombinant human PTK5 (218 to end residues) using GGEEEEYFELVKK as substrate incubated for 40 mins in presence of [gamma33P]ATP by radiometric scintillation counting analysis
Ephrin type-B receptor 3 = Ephrin type-B receptor 3 (Homo sapiens, UniProt P54753); assay: Inhibition of recombinant human EphB3 (599 to 920 residues) using poly(Glu, Tyr) 4:1 as substrate after 40 mins in presence of [gamma-33ATP] by radiometric scintillation counting analysis
Sequence of Ephrin type-B receptor 3 (P54753 whole entry, the tested form may be a part): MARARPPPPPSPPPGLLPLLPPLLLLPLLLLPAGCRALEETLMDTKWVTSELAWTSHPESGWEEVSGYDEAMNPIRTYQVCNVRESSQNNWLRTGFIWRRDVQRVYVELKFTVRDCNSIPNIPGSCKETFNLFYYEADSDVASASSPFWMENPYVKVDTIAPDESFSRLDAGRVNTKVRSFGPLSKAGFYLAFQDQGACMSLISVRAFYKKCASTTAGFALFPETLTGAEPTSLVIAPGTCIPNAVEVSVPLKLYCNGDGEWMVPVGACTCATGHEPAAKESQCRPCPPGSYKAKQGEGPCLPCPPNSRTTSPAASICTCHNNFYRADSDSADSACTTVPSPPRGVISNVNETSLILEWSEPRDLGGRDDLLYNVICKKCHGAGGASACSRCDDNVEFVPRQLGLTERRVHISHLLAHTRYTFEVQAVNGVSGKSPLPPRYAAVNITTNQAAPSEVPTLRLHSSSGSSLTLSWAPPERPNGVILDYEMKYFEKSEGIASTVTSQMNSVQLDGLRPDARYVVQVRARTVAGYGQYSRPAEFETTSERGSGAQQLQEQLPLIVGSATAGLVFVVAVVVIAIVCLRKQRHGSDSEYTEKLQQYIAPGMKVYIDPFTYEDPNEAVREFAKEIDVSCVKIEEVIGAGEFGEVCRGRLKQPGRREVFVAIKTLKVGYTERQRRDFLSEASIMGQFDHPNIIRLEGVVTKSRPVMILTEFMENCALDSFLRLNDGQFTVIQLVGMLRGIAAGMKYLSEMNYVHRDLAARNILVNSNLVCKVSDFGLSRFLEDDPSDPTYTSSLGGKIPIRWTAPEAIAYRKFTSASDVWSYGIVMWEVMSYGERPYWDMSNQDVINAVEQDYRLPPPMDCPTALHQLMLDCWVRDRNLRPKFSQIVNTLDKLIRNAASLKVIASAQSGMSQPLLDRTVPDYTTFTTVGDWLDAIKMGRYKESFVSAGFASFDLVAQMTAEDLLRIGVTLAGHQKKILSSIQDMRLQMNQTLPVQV

[5] = target: Macrophage-stimulating protein receptor (Homo sapiens, UniProt Q04912); assay: Inhibition of recombinant human Ron (983 to end residues) using GGMEDIYFEFMGGKKK as substrate incubated for 40 mins in presence of [gamma33P]ATP by radiometric scintillation counting analysis
[6] = target: Serine/threonine-protein kinase D3 (Homo sapiens, UniProt O94806); assay: Inhibition of recombinant full-length human PKD3 using KKLRRTLSVA as substrate incubated for 40 mins in presence of [gamma33P]ATP by radiometric scintillation counting analysis
Sequence of Serine/threonine-protein kinase D3 (O94806 whole entry): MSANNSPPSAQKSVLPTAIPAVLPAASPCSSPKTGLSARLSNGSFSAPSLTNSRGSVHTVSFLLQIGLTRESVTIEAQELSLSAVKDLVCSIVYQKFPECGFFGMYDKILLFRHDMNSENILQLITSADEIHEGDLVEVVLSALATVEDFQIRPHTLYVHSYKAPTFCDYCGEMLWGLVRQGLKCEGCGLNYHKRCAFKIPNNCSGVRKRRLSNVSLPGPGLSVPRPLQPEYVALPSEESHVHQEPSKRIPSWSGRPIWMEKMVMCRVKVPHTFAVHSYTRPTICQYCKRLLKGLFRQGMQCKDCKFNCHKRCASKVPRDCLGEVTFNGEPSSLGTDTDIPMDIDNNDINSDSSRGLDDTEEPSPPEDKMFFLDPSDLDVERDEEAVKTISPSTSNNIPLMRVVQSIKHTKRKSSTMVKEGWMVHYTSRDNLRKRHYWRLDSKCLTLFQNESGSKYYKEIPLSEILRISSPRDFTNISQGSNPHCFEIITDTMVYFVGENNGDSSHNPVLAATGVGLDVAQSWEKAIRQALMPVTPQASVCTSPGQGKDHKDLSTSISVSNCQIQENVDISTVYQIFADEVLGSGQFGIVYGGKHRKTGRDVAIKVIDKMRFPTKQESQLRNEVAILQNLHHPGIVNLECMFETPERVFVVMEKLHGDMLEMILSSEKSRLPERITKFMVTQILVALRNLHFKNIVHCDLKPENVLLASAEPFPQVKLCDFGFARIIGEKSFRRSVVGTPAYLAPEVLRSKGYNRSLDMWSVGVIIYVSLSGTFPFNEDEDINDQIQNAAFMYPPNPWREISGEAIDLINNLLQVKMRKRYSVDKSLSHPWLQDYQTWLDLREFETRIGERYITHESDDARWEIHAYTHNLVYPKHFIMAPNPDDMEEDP

Aurora kinase C = Aurora kinase C (Homo sapiens, UniProt Q9UQB9); assay: Inhibition of human recombinant AURORA-C (35 to end residues) using AKRRRLSSLRA as substrate incubated for 40 mins in presence of [gamma-33ATP] by radiometric scintillation counting analysis
[7] = target: Ribosomal protein S6 kinase alpha-5 (Homo sapiens, UniProt O75582); assay: Inhibition of recombinant human MSK1 (2 to end residues) using GRPRTSSFAEGKK as substrate incubated for 40 mins in presence of [gamma-33ATP by radiometric scintillation counting analysis
[8] = target: Tyrosine-protein kinase CSK (Homo sapiens, UniProt P41240); assay: Inhibition of recombinant full length human CSK using poly(Glu, Tyr) 4:1 as substrate incubated 40 mins in presence of [gamma-33ATP] by radiometric scintillation counting analysis
[9] = target: ALK tyrosine kinase receptor (Homo sapiens, UniProt Q9UM73); assay: Inhibition of human recombinant ALK (1058 to end residues) using KKKSPGEYVNIEF as substrate incubated for 40 mins in presence of [gamma-33P]ATP by radiometric scintillation counting analysis
[10] = target: Mitogen-activated protein kinase 13 (Homo sapiens, UniProt O15264); assay: Inhibition of recombinant human full length SAPK4 using myelin basic protein as substrate incubated for 40 mins in presence of [gamma33P]ATP by radiometric scintillation counting analysis
[11] = target: Transient receptor potential cation channel subfamily M member 7 (Homo sapiens, UniProt Q96QT4); assay: Inhibition of recombinant human CHAK1 (1180 to end residues) using myelin basic protein as substrate incubated for 40 mins in presence of [gamma-33ATP] by radiometric scintillation counting analysis
[12] = target: Receptor-interacting serine/threonine-protein kinase 1 (Homo sapiens, UniProt Q13546); assay: Inhibition of recombinant human RIPK1 (8 to 322 residues) using myelin basic protein as substrate incubated for 40 mins in presence of [gamma33P]ATP by radiometric scintillation counting analysis
[13] = target: Epidermal growth factor receptor (Homo sapiens, UniProt P00533, T790M); assay: Inhibition of recombinant human EGFR T790M mutant (696 to end residues) using poly(Glu, Tyr) 4:1 as substrate after 40 mins in presence of [gamma-33ATP] by radiometric scintillation counting analysis
[14] = target: Eukaryotic elongation factor 2 kinase (Homo sapiens, UniProt O00418, H23R); assay: Inhibition of recombinant human eEF2K H23R mutant (2 to end residues) using RKKFGESEKTKTK as substrate after 40 mins in presence of [gamma-33ATP] by radiometric scintillation counting analysis
Sequence of Eukaryotic elongation factor 2 kinase (O00418 2-725 H23R limits assumed): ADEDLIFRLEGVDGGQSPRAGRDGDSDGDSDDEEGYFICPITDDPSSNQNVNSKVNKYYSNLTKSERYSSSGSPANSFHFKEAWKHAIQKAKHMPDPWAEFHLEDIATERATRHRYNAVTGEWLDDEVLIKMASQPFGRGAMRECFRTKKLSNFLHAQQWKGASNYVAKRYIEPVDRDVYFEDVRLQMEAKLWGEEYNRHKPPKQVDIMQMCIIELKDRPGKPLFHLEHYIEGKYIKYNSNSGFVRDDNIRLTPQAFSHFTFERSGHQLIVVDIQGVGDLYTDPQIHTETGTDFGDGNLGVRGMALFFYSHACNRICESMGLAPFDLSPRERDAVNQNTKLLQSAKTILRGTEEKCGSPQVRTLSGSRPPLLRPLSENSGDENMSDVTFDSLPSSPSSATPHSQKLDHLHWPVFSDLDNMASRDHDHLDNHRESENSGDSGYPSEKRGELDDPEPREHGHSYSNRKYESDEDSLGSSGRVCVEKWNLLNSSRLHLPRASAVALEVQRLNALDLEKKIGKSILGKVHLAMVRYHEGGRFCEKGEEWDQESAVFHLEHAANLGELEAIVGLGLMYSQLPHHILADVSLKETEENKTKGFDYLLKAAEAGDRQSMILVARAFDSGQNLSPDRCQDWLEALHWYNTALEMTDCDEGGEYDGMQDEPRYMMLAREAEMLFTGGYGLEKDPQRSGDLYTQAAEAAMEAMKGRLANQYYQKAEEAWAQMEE

[15] = target: MAPK/MAK/MRK overlapping kinase (Homo sapiens, UniProt Q9UQ07); assay: Inhibition of recombinant human MOK (1 to 343 residues) using RSRSRSRSRSRSR as substrate incubated for 40 mins in presence of [gamma-33ATP by radiometric scintillation counting analysis
Sequence of MAPK/MAK/MRK overlapping kinase (Q9UQ07 whole entry, the tested form may be a part): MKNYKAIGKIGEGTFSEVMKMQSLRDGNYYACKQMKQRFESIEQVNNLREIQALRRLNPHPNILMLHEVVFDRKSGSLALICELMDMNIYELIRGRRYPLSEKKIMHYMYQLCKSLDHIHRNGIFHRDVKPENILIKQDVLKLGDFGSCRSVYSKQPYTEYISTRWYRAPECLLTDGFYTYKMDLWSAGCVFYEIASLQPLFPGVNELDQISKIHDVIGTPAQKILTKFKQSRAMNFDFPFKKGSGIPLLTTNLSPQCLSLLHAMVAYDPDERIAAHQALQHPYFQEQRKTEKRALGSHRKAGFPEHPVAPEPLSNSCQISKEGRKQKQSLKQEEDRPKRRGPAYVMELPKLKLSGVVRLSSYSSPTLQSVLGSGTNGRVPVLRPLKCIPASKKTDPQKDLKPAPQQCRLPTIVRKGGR

[16] = target: Dual specificity mitogen-activated protein kinase kinase 6 (Homo sapiens, UniProt P52564); assay: Inhibition of recombinant human MKK6 (4 to end residues) using SAPK2 as substrate incubated for 40 mins by radiometric scintillation counting analysis
Sequence of Dual specificity mitogen-activated protein kinase kinase 6 (P52564 whole entry): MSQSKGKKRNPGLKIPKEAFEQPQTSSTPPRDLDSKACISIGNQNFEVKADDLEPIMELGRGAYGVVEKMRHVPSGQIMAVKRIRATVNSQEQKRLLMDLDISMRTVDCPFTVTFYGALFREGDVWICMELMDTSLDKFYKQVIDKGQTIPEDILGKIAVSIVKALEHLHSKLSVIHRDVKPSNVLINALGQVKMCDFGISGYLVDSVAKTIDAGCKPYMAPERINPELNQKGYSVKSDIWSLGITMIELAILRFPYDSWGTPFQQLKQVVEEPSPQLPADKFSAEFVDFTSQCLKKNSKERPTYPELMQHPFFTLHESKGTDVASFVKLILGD

Ephrin type-B receptor 4 = Ephrin type-B receptor 4 (Homo sapiens, UniProt P54760); assay: Inhibition of recombinant human EphB4 (561 to end residues) using poly(Glu, Tyr) 4:1 as substrate after 40 mins in presence of [gamma-33ATP] by radiometric scintillation counting analysis
[17] = target: STE20-like serine/threonine-protein kinase (Homo sapiens, UniProt Q9H2G2); assay: Inhibition of recombinant human SLK (1 to 373 residues) using RLGRDKYKTLRQI as substrate incubated for 40 mins in presence of [gamma33P]ATP by radiometric scintillation counting analysis
Sequence of STE20-like serine/threonine-protein kinase (Q9H2G2 whole entry, the tested form may be a part): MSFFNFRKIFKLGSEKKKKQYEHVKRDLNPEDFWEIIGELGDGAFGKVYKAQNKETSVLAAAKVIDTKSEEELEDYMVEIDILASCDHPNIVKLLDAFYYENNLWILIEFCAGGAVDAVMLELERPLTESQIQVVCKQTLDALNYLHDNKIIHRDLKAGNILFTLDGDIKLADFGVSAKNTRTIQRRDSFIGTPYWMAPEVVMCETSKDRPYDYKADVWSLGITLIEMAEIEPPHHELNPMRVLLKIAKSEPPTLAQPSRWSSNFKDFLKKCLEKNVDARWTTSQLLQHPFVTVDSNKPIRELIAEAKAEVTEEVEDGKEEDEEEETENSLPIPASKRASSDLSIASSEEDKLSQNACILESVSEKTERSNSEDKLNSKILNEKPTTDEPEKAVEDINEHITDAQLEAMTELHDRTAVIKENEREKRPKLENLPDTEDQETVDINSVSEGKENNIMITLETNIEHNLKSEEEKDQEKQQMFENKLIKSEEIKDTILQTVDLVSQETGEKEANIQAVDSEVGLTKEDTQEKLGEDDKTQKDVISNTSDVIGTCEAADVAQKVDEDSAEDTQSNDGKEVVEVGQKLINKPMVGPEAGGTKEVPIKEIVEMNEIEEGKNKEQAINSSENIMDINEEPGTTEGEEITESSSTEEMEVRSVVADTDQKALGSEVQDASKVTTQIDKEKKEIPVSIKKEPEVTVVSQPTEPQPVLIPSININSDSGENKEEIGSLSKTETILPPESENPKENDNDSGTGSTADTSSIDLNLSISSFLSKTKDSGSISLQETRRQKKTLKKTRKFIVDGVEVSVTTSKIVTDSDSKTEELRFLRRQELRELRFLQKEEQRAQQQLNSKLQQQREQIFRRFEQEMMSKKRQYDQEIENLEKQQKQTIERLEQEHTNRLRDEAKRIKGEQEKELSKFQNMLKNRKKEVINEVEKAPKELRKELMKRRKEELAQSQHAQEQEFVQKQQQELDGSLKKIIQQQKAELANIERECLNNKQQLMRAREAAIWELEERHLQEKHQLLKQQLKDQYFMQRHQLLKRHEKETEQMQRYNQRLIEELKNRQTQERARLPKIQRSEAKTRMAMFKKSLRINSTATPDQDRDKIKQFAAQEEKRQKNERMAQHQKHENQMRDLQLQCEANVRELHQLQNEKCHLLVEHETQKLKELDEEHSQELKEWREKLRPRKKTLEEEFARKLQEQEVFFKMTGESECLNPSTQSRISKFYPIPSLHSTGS

[18] = target: Dual specificity mitogen-activated protein kinase kinase 2 (Homo sapiens, UniProt P36507); assay: Inhibition of recombinant full length human MEK2 using MBP as substrate incubated for 40 mins in presence of [gamma-33ATP by radiometric scintillation counting analysis
[19] = target: Serine/threonine-protein kinase 25 (Homo sapiens, UniProt O00506); assay: Inhibition of recombinant human STK25 (1 to 308 residues) using RLGRDKYKTLRQI as substrate incubated for 40 mins in presence of [gamma33P]ATP by radiometric scintillation counting analysis
[20] = target: Tyrosine-protein kinase BTK (Homo sapiens, UniProt Q06187, R28H); assay: Inhibition of recombinant full length human BTK R28H mutant using KVEKIGEGTYGVV substrate incubated for 40 mins in presence of [gamma-33ATP] by radiometric scintillation counting analysis
[21] = target: Wee1-like protein kinase 2 (Homo sapiens, UniProt P0C1S8); assay: Inhibition of recombinant full length human WEE1b using LSNLYHQGKFLQTFCGSPLYRRR as substrate incubated for 120 mins in presence of [gamma33P]ATP by radiometric scintillation counting analysis
[22] = target: Transcription initiation factor TFIID subunit 1-like (Homo sapiens, UniProt Q8IZX4); assay: Inhibition of recombinant human TAF1L (1428 to end residues) using RRRFRPASPLRGP as substrate incubated for 120 mins in presence of [gamma33P]ATP by radiometric scintillation counting analysis

Measured: IC50

CN(C)c1ccc(C(=O)Nc2cccc(NC(=O)COc3ccc4c(=O)ccoc4c3)c2)cc1
> 10 µM: [1] | [2] | [3] | [4] | Ephrin type-B receptor 3 | [5] | [6] | Aurora kinase C | [7] | [8] | [9] | [10] | [11] | [12] | [13] | [14] | [15] | [16] | Ephrin type-B receptor 4 | [17] | [18] | [19] | [20] | [21] | [22]
